What was measured:
ECHCG = test: greenhouse post-emergence herbicidal test; assay type: in vivo, barnyard grass; conditions: application rates of 0.125 or 0.0625 kg/ha
Text: (§1) The seeds of the test plants were sown separately for each species. For the post-emergence treatment, the test plants were first grown to a height of from 3 to 15 cm, depending on the plant habit, and only then treated with the active compounds which had been suspended or emulsified in water. The test plants were for this purpose either sown directly and grown in the same containers, or they were first grown separately as seedlings and transplanted into the test containers a few days prior to treatment. The application rate for the post-emergence treatment was 0.125 and 0.0625 kg of a.s. (active substance)/ha. Depending on the species, the plants were kept at 10–25° C. or 20–35° C. The test period extended over 2 to 4 weeks. During this time, the plants were tended, and their response to the individual treatments was evaluated. The evaluation was carried out using a scale from 0 to 100. 100 means no emergence of the plants, or complete destruction of at least the aerial parts and 0 means no damage, or normal course of growth. The plants used in the greenhouse experiments were of the following species: [table]

ABUTH = test: greenhouse post-emergence herbicidal test; assay type: in vivo, velvetleaf; conditions: application rates of 0.125 or 0.0625 kg/ha
Text: as §1

POLPE = test: greenhouse post-emergence herbicidal test; assay type: in vivo, ladys thumb; conditions: application rates of 0.125 or 0.0625 kg/ha
Text: as §1

CHEAL = test: greenhouse post-emergence herbicidal test; assay type: in vivo, lambsquarters; conditions: application rates of 0.125 or 0.0625 kg/ha
Text: as §1

SETFA = test: greenhouse post-emergence herbicidal test; assay type: in vivo, giant foxtail; conditions: application rates of 0.125 or 0.0625 kg/ha
Text: as §1

PHBPU = test: greenhouse post-emergence herbicidal test; assay type: in vivo, morning glory; conditions: application rates of 0.125 or 0.0625 kg/ha
Text: as §1

AMARE = test: greenhouse post-emergence herbicidal test; assay type: in vivo, redroot pigweed; conditions: application rates of 0.125 or 0.0625 kg/ha
Text: as §1

| Structure (SMILES) | melting point [°C] | herbicidal post-emergence activity against ECHCG (ECHCG) | herbicidal post-emergence activity against CHEAL (CHEAL) | other results |
| --- | --- | --- | --- | --- |
| Cc1c(C(=O)C2=C(n3cccn3)CC(C)CC2=O)ccc(S(C)(=O)=O)c1S(C)(=O)=O (centres unmarked) [Compound 3.2] | 278 to 283 | – | – | – |
| Cc1c(C(=O)C2=C(O)CCC(C)(C)C2=O)ccc(S(C)(=O)=O)c1S(C)(=O)=O [Compound 2.4] | – | very good | very good | herbicidal post-emergence activity against SETFA (SETFA): very good; herbicidal post-emergence activity against PHBPU (PHBPU): very good |
| Cc1c(C(=O)C2=C(n3cccn3)CCCC2=O)ccc(S(C)(=O)=O)c1S(C)(=O)=O [Compound 3.1] | 275 to 277 | – | – | – |
| COc1ccc(C(=O)C2=C(O)CC(C)(C)CC2=O)c(C)c1S(C)(=O)=O [Compound 2.8] | 163 to 165 | – | – | – |
| Cc1c(C(=O)C2=C(O)CC(C)(C)CC2=O)ccc(S(C)(=O)=O)c1S(C)(=O)=O [Compound 2.5] | – | very good | very good | herbicidal post-emergence activity against AMARE (AMARE): very good; herbicidal post-emergence activity against SETFA (SETFA): very good |
| Cc1c(C(=O)C2=C(O)CC(C)CC2=O)ccc(S(C)(=O)=O)c1S(C)(=O)=O (centres unmarked) [Compound 2.3] | 235 to 239 | very good | very good | herbicidal post-emergence activity against ABUTH (ABUTH): very good; herbicidal post-emergence activity against PHBPU (PHBPU): very good |

Further lines, with some results ahead:

| melting point [°C] | Structure (SMILES) | herbicidal post-emergence activity against ECHCG (ECHCG) | herbicidal post-emergence activity against CHEAL (CHEAL) | other results |
| --- | --- | --- | --- | --- |
| 301 to 302 | Cc1c(C(=O)C2=C(O)CCCC2=O)ccc(S(C)(=O)=O)c1S(C)(=O)=O [Compound 2.1, 2-[2-Methyl-3,4-di(methylsulfonyl)benzoyl]cyclohexane-1,3-dione] | very good | very good | herbicidal post-emergence activity against ABUTH (ABUTH): very good; herbicidal post-emergence activity against POLPE (POLPE): very good |
| 64 to 69 | Cc1c(C(=O)C2=C(O)CCCC2=O)ccc(OC(F)F)c1S(C)(=O)=O [Compound 2.10] | – | – | – |
| 121 to 129 | COc1ccc(C(=O)C2=C(O)CCCC2=O)c(C)c1S(C)(=O)=O [Compound 2.7] | – | – | – |
| 106 to 112 | COc1ccc(C(=O)C2=C(O)CC(C)CC2=O)c(C)c1S(C)(=O)=O (centres unmarked) [Compound 2.9] | – | – | – |
| 137 to 140 | Cc1c(C(=O)C2=C(O)CCCC2=O)ccc(Cl)c1S(C)(=O)=O [Compound 2.6] | very good | – | herbicidal post-emergence activity against ABUTH (ABUTH): very good; herbicidal post-emergence activity against SETFA (SETFA): very good; herbicidal post-emergence activity against POLPE (POLPE): very good |
